Source: ChEMBL document CHEMBL5346921, “Discovery of novel benzamide derivatives bearing benzamidophenyl and phenylacetamidophenyl scaffolds as potential antitumor agents via targeting PARP-1” (Eur J Med Chem, 2023)
The source made the active and inactive calls. The calls are words filed in the database; no cut-off is given here.

Key:
[1] = tested on: DLD-1; test: Antiproliferative activity against human DLD-1 cells assessed as reduction in cell viability incubated for 48 hrs by MTT assay; format: functional, cell-based; conditions: DLD-1, 48 h
[2] = molecular target: Poly [ADP-ribose] polymerase 2 (Homo sapiens, UniProt Q9UGN5); test: Inhibition of human PARP-2 by ELISA
Chain of Poly [ADP-ribose] polymerase 2 (Q9UGN5 whole entry): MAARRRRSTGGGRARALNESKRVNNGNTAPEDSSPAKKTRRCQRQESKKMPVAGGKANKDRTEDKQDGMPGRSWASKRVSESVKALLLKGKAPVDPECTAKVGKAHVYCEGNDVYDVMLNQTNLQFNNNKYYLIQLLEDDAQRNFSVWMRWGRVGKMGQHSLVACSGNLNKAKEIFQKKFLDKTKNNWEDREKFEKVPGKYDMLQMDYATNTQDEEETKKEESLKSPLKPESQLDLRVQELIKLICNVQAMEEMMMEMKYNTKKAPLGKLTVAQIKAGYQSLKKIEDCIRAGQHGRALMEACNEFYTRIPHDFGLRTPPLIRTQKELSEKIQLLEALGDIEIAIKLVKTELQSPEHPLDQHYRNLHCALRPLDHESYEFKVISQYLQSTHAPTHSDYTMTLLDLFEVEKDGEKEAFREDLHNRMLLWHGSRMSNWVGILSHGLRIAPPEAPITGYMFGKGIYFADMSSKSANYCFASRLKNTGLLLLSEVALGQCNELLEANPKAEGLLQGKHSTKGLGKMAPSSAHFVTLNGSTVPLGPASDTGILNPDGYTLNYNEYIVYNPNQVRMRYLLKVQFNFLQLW

[3] = tested on: HCT-116; test: Inhibition of colony formation in human HCT-116 cells pretreated for 48 hrs followed by replacement of fresh medium and measured every 3 days by crystal violet staining based analysis; format: functional, cell-based; conditions: dose 0.3-3 µM
[4] = tested on: HCT-116; test: Inhibition of colony formation in human HCT-116 cells at 3 uM pretreated for 48 hrs followed by replacement of fresh medium and measured every 3 days by crystal violet staining based analysis; format: functional
[5] = tested on: HCT-116; test: Inhibition of cell migration in human HCT-116 cells at 1 uM incubated for 24 hrs by wound healing assay; format: functional
[6] = tested on: HCT-116; test: Inhibition of cell migration in human HCT-116 cells at 3 uM incubated for 24 hrs by wound healing assay; format: functional
[7] = tested on: HCT-116; test: Inhibition of cell migration in human HCT-116 cells at 1 uM incubated for 48 hrs by wound healing assay; format: functional
[8] = tested on: HCT-116; test: Induction of cell cycle arrest in human HCT-116 cells assessed as accumulation of cells at G0/G1 phase at 0.3 uM incubated for 48 hrs by PI staining based flow cytometry (reference value: 62.1%); format: functional
[9] = tested on: HCT-116; test: Induction of cell cycle arrest in human HCT-116 cells assessed as accumulation of cells at G2/M phase at 0.3 uM incubated for 48 hrs by PI staining based flow cytometry (reference value: 24.7%); format: functional
[10] = tested on: HCT-116; test: Induction of cell cycle arrest in human HCT-116 cells assessed as accumulation of cells at G0/G1 phase at 1.5 uM incubated for 48 hrs by PI staining based flow cytometry (reference value: 62.1%); format: functional
[11] = tested on: HCT-116; test: Induction of cell cycle arrest in human HCT-116 cells assessed as accumulation of cells at S phase at 1.5 uM incubated for 48 hrs by PI staining based flow cytometry (reference value: 14.5%); format: functional
[12] = tested on: HCT-116; test: Induction of cell cycle arrest in human HCT-116 cells assessed as accumulation of cells at S phase at 7.5 uM incubated for 48 hrs by PI staining based flow cytometry (reference value: 14.5%); format: functional
[13] = tested on: HCT-116; test: Induction of cell cycle arrest in human HCT-116 cells assessed as accumulation of cells at G2/M phase at 7.5 uM incubated for 48 hrs by PI staining based flow cytometry (reference value: 24.7%); format: functional
[14] = tested on: HCT-116; test: Induction of cell cycle arrest in human HCT-116 cells assessed as accumulation of cells at G2/M phase at 1.5 uM incubated for 72 hrs by PI staining based flow cytometry (reference value: 25.4%); format: functional
[15] = tested on: HCT-116; test: Induction of cell cycle arrest in human HCT-116 cells assessed as accumulation of cells at S phase at 7.5 uM incubated for 72 hrs by PI staining based flow cytometry (reference value: 16.7%); format: functional
[16] = tested on: HCT-116; test: Induction of apoptosis in human HCT-116 cells assessed as viable cells at 0.3 uM incubated for 48 hrs by AnnexinV-FITC/PI staining based flow cytometry (reference value: 97.89%); format: functional; conditions: read-out: Activity
[17] = tested on: HCT-116; test: Induction of apoptosis in human HCT-116 cells assessed as late apoptotic cells at 0.3 uM incubated for 48 hrs by AnnexinV-FITC/PI staining based flow cytometry (reference value: 0%); format: functional
[18] = tested on: HCT-116; test: Induction of apoptosis in human HCT-116 cells assessed as necrotic cells at 0.3 uM incubated for 48 hrs by AnnexinV-FITC/PI staining based flow cytometry (reference value: 0%); format: functional
[19] = tested on: HCT-116; test: Induction of apoptosis in human HCT-116 cells assessed as early apoptotic cells at 1.5 uM incubated for 48 hrs by AnnexinV-FITC/PI staining based flow cytometry (reference value: 2.11%); format: functional
[20] = tested on: HCT-116; test: Induction of apoptosis in human HCT-116 cells assessed as late apoptotic cells at 1.5 uM incubated for 48 hrs by AnnexinV-FITC/PI staining based flow cytometry (reference value: 0%); format: functional
[21] = tested on: HCT-116; test: Induction of apoptosis in human HCT-116 cells assessed as early apoptotic cells at 7.5 uM incubated for 48 hrs by AnnexinV-FITC/PI staining based flow cytometry (reference value: 2.11%); format: functional
[22] = tested on: HCT-116; test: Induction of apoptosis in human HCT-116 cells assessed as late apoptotic cells at 7.5 uM incubated for 48 hrs by AnnexinV-FITC/PI staining based flow cytometry (reference value: 0%); format: functional
[23] = tested on: HCT-116; test: Induction of apoptosis in human HCT-116 cells assessed as necrotic cells at 0.3 uM incubated for 72 hrs by AnnexinV-FITC/PI staining based analysis (reference value: 0%); format: functional
[24] = tested on: HCT-116; test: Induction of apoptosis in human HCT-116 cells assessed as early apoptotic cells at 1.5 uM incubated for 72 hrs by AnnexinV-FITC/PI staining based analysis (reference value: 1.05%); format: functional
[25] = tested on: HCT-116; test: Induction of apoptosis in human HCT-116 cells assessed as late apoptotic cells at 1.5 uM incubated for 72 hrs by AnnexinV-FITC/PI staining based analysis (reference value: 0%); format: functional
[26] = tested on: HCT-116; test: Induction of apoptosis in human HCT-116 cells assessed as necrotic cells at 1.5 uM incubated for 72 hrs by AnnexinV-FITC/PI staining based analysis (reference value: 0%); format: functional
[27] = tested on: HCT-116; test: Induction of apoptosis in human HCT-116 cells assessed as viable cells at 7.5 uM incubated for 72 hrs by AnnexinV-FITC/PI staining based analysis (reference value: 98.95%); format: functional; conditions: read-out: Activity
[28] = tested on: HCT-116; test: Induction of apoptosis in human HCT-116 cells assessed as early apoptotic cells at 7.5 uM incubated for 72 hrs by AnnexinV-FITC/PI staining based analysis (reference value: 1.05%); format: functional
[29] = tested on: HCT-116; test: Induction of apoptosis in human HCT-116 cells assessed as late apoptotic cells at 7.5 uM incubated for 72 hrs by AnnexinV-FITC/PI staining based analysis (reference value: 0%); format: functional
[30] = tested on: HCT-116; test: Induction of mitochondrial membrane potential loss in human HCT-116 cells assessed as increase in monomer JC-1 level by measuring green fluorescence intensity at 3 uM incubated for 48 hrs by immunofluorescence analysis; format: functional, cell-based
[31] = tested on: HCT-116; test: Induction of mitochondrial membrane potential loss in human HCT-116 cells assessed as JC-1 aggregate level by measuring red fluorescence intensity at 0.3 uM incubated for 48 hrs by JC-1 staining based flow cytometry (reference value: 96.72%); format: functional
[32] = tested on: HCT-116; test: Induction of mitochondrial membrane potential loss in human HCT-116 cells assessed as JC-1 monomer level by measuring green fluorescence intensity at 3 uM incubated for 48 hrs by JC-1 staining based flow cytometry (reference value: 3.28%); format: functional
[33] = tested on: HCT-116; test: Induction of apoptosis in human HCT-116 cells assessed as increase in Bax protein expression incubated for 48 hrs by western blot analysis; format: functional, cell-based; conditions: dose 0.3-3 µM
[34] = tested on: HCT-116; test: Induction of apoptosis in human HCT-116 cells assessed as increase in cleaved caspase-3 protein expression incubated for 48 hrs by western blot analysis; format: functional, cell-based; conditions: dose 0.3-3 µM
[35] = tested on: HCT-116; test: cells; conditions: Homo sapiens, HCT-116, 48 h

`NC(=O)c1ccccc1OCc1cccc(NC(=O)c2ccc(Br)cc2)c1` was tested, and the IC50 [1] was 2.83 µM, the IC50 [2] was 0.00234 µM and the inhibition [3] was “Dose-Dependent Effect”. For the same compound, the inhibition at 3 µM [4] was 100%, the inhibition at 1 µM [5] was 18% and the inhibition at 3 µM [6] was 22.3%. The inhibition at 1 µM [7] was 36.3%, the Activity [8] was 60.7% and the Activity [9] was 28.6%. The Activity [10] was 56.6%, the Activity [11] was 12.5% and the Activity [12] was 10.4%. The Activity [13] was 41%, the Activity [14] was 35.5% and the Activity [15] was 20.3%. The viability at 0.3 µM [16] was 90.4%, the Activity [17] was 0.25% and the Activity [18] was 0.23%. It also gave an Activity [19] of 22.69%, an Activity [20] of 2.97% and an Activity [21] of 40.9%. It also gave an Activity [22] of 1.19%, an Activity [23] of 0% and an Activity [24] of 30.42%. The Activity [25] was 0.26%, the Activity [26] was 0.01% and the viability at 7.5 µM [27] was 20.5%. The Activity [28] was 79.44%, the Activity [29] was 0.05% and the Activity [30] was “Active”. For the same compound, the Activity [31] was 90.62%, the Activity [32] was 50.03% and the Activity [33] was “Dose-Dependent Effect”. For the same compound, the Activity [34] was “Dose-Dependent Effect” and the IC50 [35] was 0.3 µM.
